Experimental data as given in patent publication US6737064B2, “Method for the diagnosis of neoplastic tissue comprising administering a vasopermeability enhancing peptide of human interleukin-2” (The University of Southern California, priority 1996, dated 2004).

Tested on: Raji tumor-bearing nude mice
Test: In vivo vasopermeability / biodistribution study, Raji lymphoma model (tumor uptake of 125I-Lym-1 F(ab')2 after pre-treatment)
Procedure: The Raji lymphoma cell line was used to produce heterotransplants in 6-week-old female nude mice by the subcutaneous injection of a 0.2 ml inoculum consisting of 4×10^7 Raji cells and 4×10^6 human fetal fibroblast feeder cells in the left thigh. Three days prior to injection, the mice were irradiated with 400 rads using a cesium irradiator to ensure a high take rate of the implanted cells. The tumors were grown for 14-18 days until they grew to approximately 1 cm in diameter.
To test the relative effects of the immunoconjugates on the biodistribution and tumor uptake of Lym-1 or TNT-1 in tumor-bearing mice, separate groups of 4-5 mice were given intravenous injections of 30 μg of antibody alone or antibody conjugate. At 2.5 hr after injection, each group received 50 μCi of ^125I-labeled Lym-1 or TNT-1 F(ab′)2 fragment as tracer.
All animals were sacrificed 72 hr later, by sodium pentobarbital overdose, for biodistribution analysis. Various organs, blood, and tumor were removed, weighed, and samples were counted in a gamma counter. For each mouse, data were expressed as tumor:organ ratio (cpm per gram tumor/cpm per gram organ) and percent injected dose/gram (% ID/g).

Substance | Vasopermeability (% Lym-1/IL-2) (i.v., enhanced Lym-1 uptake relative to Lym-1/IL-2 conjugate, 30-40 pM of peptide per assay) | Vasopermeability activity (in words) (intravenous administration)
3C: synthetic IL-2 peptide, amino acids 22-58 (SEQ ID NO:1), permeability enhancing peptide (EMILNGINNYKNPKLTRMLTFKFYMPKKATELKHLQC; listed as Homo sapiens) [Fragment 3C] | 0 % Lym-1/IL-2 | –
E6: synthetic peptide fragment of human IL-2, amino acids 22-38 (QMILNGINNYKNPKLTR; UniProt P60568 42-58, looked up, fragment) [Fragment E6] | – | no activity
